{"source": "patent US20040039039A1", "about": "“Fungicidal mixtures” (priority 2003, published 2004)", "tested_on": "Plasmopara viticola", "experiment": "Protective activity against Peronospora in grapevines caused by Plasmopara viticola", "type": "in vivo", "settings": "individual active compound, potted vines", "experimental": "The active compounds, separately or together, were formulated as a 10% emulsion in a mixture of 63% by weight of cyclohexanone and 27% by weight of emulsifier, and diluted with water to the desired concentration.\nEvaluation was carried out by determining the infected leaf areas in percent. These percentages were converted into efficacies. The efficacy (W) was calculated as follows using Abbot's formula: […]\nα corresponds to the fungal infection of the treated plants in % and β corresponds to the fungal infection of the untreated (control) plants in % An efficacy of 0 means that the infection level of the treated plants corresponds to that of the untreated control plants; an efficacy of 100 means that the treated plants were not infected.\nThe expected efficacies of the mixtures of the active compounds were determined using Colby's formula [R. S. Colby, Weeds 15, 20-22 (1967)] and compared with the observed efficacies.\nColby's formula: E=x+y−x·y/100\nE expected efficacy, expressed in % of the untreated control, when using the mixture of the active compounds A and B at the concentrations a and b x efficacy, expressed in % of the untreated control, when using active compound A at a concentration a y efficacy, expressed in % of the untreated control, when using active compound B at a concentration b.\nProtective Activity Against Peronospora in Grapevines Caused by Plasmopara viticola Leaves of potted vines of the cultivar “Müiller-Thurgau” were sprayed to runoff point with an aqueous preparation of active compound which had been prepared using a stock solution comprising 10% of active compound, 85% of cyclohexanone and 5% of emulsifier. The next day, the undersides of the leaves were inoculated with an aqueous zoospore suspension of Plasmopara viticola. The vines were then placed firstly for 48 hours in a water-vapor-saturated chamber at 24° C. and then for 5 days in a greenhouse at 20-30° C. After this period of time, the plants were again placed in a moist chamber for 16 hours to accelerate the sporangiophore eruption. The extent to which the undersides of the leaves had been infected was then determined visually."}
{"compound": "manganese ethylenebis(dithiocarbamate) (zinc complex) [IIa]", "values": [{"measurement": "Efficacy in % of the untreated control", "setting": "5 ppm in the spray liquor", "value": 11, "unit": "%"}, {"measurement": "Efficacy in % of the untreated control", "setting": "10 ppm in the spray liquor", "value": 72, "unit": "%"}]}
{"compound": "Cc1ccc(-c2c(Cl)nc(C#N)n2S(=O)(=O)N(C)C)cc1", "note": "[Ia, cyazofamid]", "values": [{"measurement": "Efficacy in % of the untreated control", "setting": "0.05 ppm in the spray liquor", "value": 56, "unit": "%"}, {"measurement": "Efficacy in % of the untreated control", "setting": "0.1 ppm in the spray liquor", "value": 78, "unit": "%"}, {"measurement": "Efficacy in % of the untreated control", "setting": "0.2 ppm in the spray liquor", "value": 89, "unit": "%"}]}
{"compound": "zinc ammoniate ethylenebis(dithiocarbamate) [IIc]", "values": [{"measurement": "Efficacy in % of the untreated control", "setting": "5 ppm in the spray liquor", "value": 0, "unit": "%"}, {"measurement": "Efficacy in % of the untreated control", "setting": "10 ppm in the spray liquor", "value": 11, "unit": "%"}]}
